Patent US20250195540A1, “Use of dehydroepiandrosterone (DHEA) in preparation of drug for preventing and treating ophthalmic myopia, dosage forms of DHEA, and preparation methods of dosage forms” (Zhongshan Ophthalmic Center of Sun Yat-sen University, priority 2022, published 2025)

System: form deprivation myopia (FDM) model
Assay: Efficacy research in form deprivation myopia (FDM) model
Format: in vivo, colored guinea pigs
Details: applied locally to eyes
Text: (1) A total of 40 healthy three-week-old colored guinea pigs were randomly selected and randomly divided into 8 groups with 5 guinea pigs in each group. The 8 guinea pig groups includes a first group: a normal control group, a second group: a myopia model-alone group, a third group: a myopia model+0.01% DHEA-based eye drop group, a fourth group: a myopia model+0.1% DHEA-based eye drop group, a fifth group: myopia model+1% DHEA-based eye drop group, a sixth group: a myopia model+2% DHEA-based eye drop group, a seventh group: a myopia model+DHEA-based eye ointment group, and an eighth group: a myopia model+DHEA-based gel group. There were no statistically-significant differences in the baseline diopter and AL of the right eye among the groups.
(2) Establishment of a form deprivation myopia (FDM) model: the right eye was covered and the left eye was normally opened. […]
A) Diopter measurement: the optometry was conducted with a streak retinoscope and lenses of different diopters, and an average of diopters in horizontal and vertical meridians was taken. The optometry was conducted 3 times, and an average was taken and recorded as a result.
B) AL measurement: ALs of both eyes were measured by an A-mode ultrasound instrument. Results of 6 measurements under waveform standards were selected, and an average was taken and recorded as a result, which was accurate to 0.01 mm.

C[C@]12CC[C@H](O)CC1=CC[C@@H]1[C@@H]2CC[C@]2(C)C(=O)CC[C@@H]12 [DHEA, 3-β-hydroxyandrost-5-en-17-one]
Growth of axial length (AL) in animal models: reduce the growth of axial length (AL)
